molecular target: Concanavalin-A (Canavalia ensiformis, UniProt P02866); test: Inhibition of Canavalia ensiformis concanavalin A binding to yeast mannan by ELLA
Sequence (P02866 whole entry): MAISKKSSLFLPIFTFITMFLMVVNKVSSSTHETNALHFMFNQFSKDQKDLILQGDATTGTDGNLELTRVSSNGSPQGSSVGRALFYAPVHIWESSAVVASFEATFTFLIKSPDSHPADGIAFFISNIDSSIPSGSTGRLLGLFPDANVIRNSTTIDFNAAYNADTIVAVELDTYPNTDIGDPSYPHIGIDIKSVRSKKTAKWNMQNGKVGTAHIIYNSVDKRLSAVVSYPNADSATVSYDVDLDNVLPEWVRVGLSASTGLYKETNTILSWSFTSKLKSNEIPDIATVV

SMILES | IC50 [µM]
NNS(=O)(=O)c1cc(C(=O)O)cc(C(=O)O)c1 | 19
Oc1cc(O)c2c(c1)OC(c1ccc(O)c(O)c1)C(O)C2c1c(O)cc(O)c2c1CC(c1ccc(O)c(O)c1)C(O)C2 (configuration not stated) | 479
CO[C@H]1O[C@H](CO)[C@@H](O)[C@H](O)[C@@H]1O | 350
O=C(O)C1CCCCC1c1c2ccc(=O)c(O)c-2oc2c(O)c(O)ccc12 (configuration not stated) | 29
NS(=O)(=O)c1ccc(/N=N/c2nc3nc(O)nc(O)c3[nH]2)cc1 | 615
NS(=O)(=O)c1ccc(/N=N/c2cccnc2O)cc1 | 234

molecular target: Concanavalin-A (Canavalia ensiformis) (UniProt P02866); test: Inhibition of Canavalia ensiformis concanavalin A binding to yeast mannan at 11 mM by ELLA
Sequence (P02866 whole entry): as above

SMILES | inhibition [%]
NS(=O)(=O)c1ccc(/N=N/c2cnc(O)c(O)c2)cc1 | 49

— ChEMBL document CHEMBL1152181, “Rational design of novel glycomimetics: inhibitors of concanavalin A” (Bioorg Med Chem Lett, 2008)
